We go through two compounds from paper PMC2830944, “Purification and functional characterization of protoplasts and intact vacuoles from grape cells” (BMC Research Notes, 2010).

The test system of experiment [1] is T1, V-ATPase (vacuolar ATPase, V-H+-ATPase).
T1 construct: gene VHA-A; native multisubunit complex in intact vacuoles isolated from protoplasts of cultured grape berry cells
Nature of the experiment: ACMA fluorescence quenching, initial velocity of proton pumping in intact vacuoles. The settings on record: 100 mM KCl, 2 mM MgCl2, 0.1% BSA, 10 mM MOPS-Tris pH 7.2, 2 μM ACMA; 0.05 to 1.5 mM ATP. Format: biochemical, Vitis vinifera.

For experiment [2], the system named is V-PPase (vacuolar inorganic pyrophosphatase, V-H+-PPase). The settings on record: 100 mM KCl, 2 mM MgCl2, 0.1% BSA, 10 mM MOPS-Tris pH 7.2, 2 μM ACMA; 0.1 to 150 μM PPi.

By Km is commonly meant the substrate concentration at which the rate is half of its maximum.

For the compound `Nc1ncnc2c1ncn2[C@@H]1O[C@H](COP(=O)(O)OP(=O)(O)OP(=O)(O)O)[C@@H](O)[C@H]1O` [ATP], the Michaelis constant (Km) in experiment [1] is 340 µM. `O=P(O)(O)OP(=O)(O)O` [PPi]: the Km in experiment [2] turned out to be 2000 nM.
